The supplement of paper PMC4862054

Legend:
Conditions in all cases: incubation time: 72 h
MDA-MB-453 [1] = assay: drug sensitivity score (DSS), CellTiter-Glo (DSS (AUC-based score)); higher = stronger drug effect (viability inhibition or cytotoxicity); extreme values may be limits of the assay
Outline: (§1)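 In 384-well plates, compound was laid out at 5 concentrations in 10-fold steps over a 10,000-fold range specific to each compound, and breast cancer cell lines were seeded on top in 20 µl suspension for a 72 h incubation. CellTox Green fluorescence and then CellTiter-Glo luminescence were read, and each plate was normalised to 0.1 % DMSO and a positive kill control. The drug sensitivity score was calculated from the area under the fitted dose-response curve.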

HCC1937 [2] = assay: as above
Outline: as §1

MDA-MB-436 [3] = assay: as above
Outline: as §1

BT-549 [4] = assay: as above
Outline: as §1

DU-4475 [5] = assay: as above
Outline: as §1

BT-474 [6] = assay: as above
Outline: as §1

MFM-223 = assay: drug sensitivity score (DSS), CellTox Green (DSS (AUC-based score)); higher = stronger drug effect (viability inhibition or cytotoxicity); extreme values may be limits of the assay
Outline: as §1

CAL-85-1 = assay: as above
Outline: as §1

CAL-51 = assay: as above
Outline: as §1

MDA-MB-468 = assay: as above
Outline: as §1

MDA-MB-453 [7] = assay: as above
Outline: as §1

HCC1937 [8] = assay: as above
Outline: as §1

Hs578T = assay: as above
Outline: as §1

HCC1599 = assay: as above
Outline: as §1

MDA-MB-436 [9] = assay: as above
Outline: as §1

CAL-148 = assay: as above
Outline: as §1

BT-549 [10] = assay: as above
Outline: as §1

DU-4475 [11] = assay: as above
Outline: as §1

BT-474 [12] = assay: as above
Outline: as §1

MDA-MB-231 = assay: as above
Outline: as §1

HDQ-P1 = assay: as above
Outline: as §1

CAL-120 = assay: as above
Outline: as §1

MCF-10A = assay: as above
Outline: as §1

HCC1143 = assay: as above
Outline: as §1

Measured: drug sensitivity score

CCc1c(C(=O)C(N)=O)c2c(OCC(=O)O)cccc2n1Cc1ccccc1 [Varespladib]
0: all assays above
